Reference: patent publication US7524503B2, “Human cytomegalovirus (HCMV) cytotoxic T cell epitopes, polyepitopes compositions comprising same and diagnostic and prophylactic and therapeutic uses therefor” (priority 2001, dated 2009)

Tests used:
[1] = test system: peptide-sensitized autologous PHA blasts or LCLs; assay type: cell-based, human; parameters: key to CTL response: Y: Yes; ND: Not detected; details: predicted epitopes, Table 3
[2] = test system: PBMC from healthy HCMV seropositive donors; assay: IFN-γ ELISPOT assay; assay type: cell-based, human; details: peptide 10 μg/ml
Method in brief: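 PBMC from healthy HCMV-seropositive donors (2.5×10^5 cells/well) were stimulated 18 h at 37° C with individual synthetic HCMV peptides (10 μg/ml) on anti-IFN-γ-coated nitrocellulose. IFN-γ spots were developed with biotinylated antibody and streptavidin-alkaline phosphatase and counted automatically. Counts were averaged over 3 wells, and no-peptide wells were subtracted.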

HLA B27 = assay: MHC stabilization assay on T2 cells; assay type: cell-based, human; details: HLA B27 on transfected T2 cells; relative increase vs no peptide at 26° C.
HLA B8 = assay: MHC stabilization assay on T2 cells; assay type: cell-based, human; details: HLA B8 on transfected T2 cells; relative increase vs no peptide at 26° C.
HLA B7 = biological target: T1, HLA B7 (Homo sapiens, UniProt P01889); assay type: cell-based; details: HLA B7 on transfected T2 cells; relative increase vs no peptide at 26° C.
T1 construct: expressed in transfected cells; host or cells: T2 cells
T1 sequence (P01889 25-362): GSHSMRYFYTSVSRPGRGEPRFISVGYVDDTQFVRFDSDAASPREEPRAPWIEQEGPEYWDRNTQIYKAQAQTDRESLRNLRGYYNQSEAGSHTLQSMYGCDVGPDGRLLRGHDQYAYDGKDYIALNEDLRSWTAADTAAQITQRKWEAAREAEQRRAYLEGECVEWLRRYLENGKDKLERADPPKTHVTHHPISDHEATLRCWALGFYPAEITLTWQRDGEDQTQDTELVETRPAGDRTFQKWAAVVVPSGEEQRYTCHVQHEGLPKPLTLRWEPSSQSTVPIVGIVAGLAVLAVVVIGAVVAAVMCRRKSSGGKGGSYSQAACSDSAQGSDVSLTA
T1 sequence (P61769 21-119, further chain): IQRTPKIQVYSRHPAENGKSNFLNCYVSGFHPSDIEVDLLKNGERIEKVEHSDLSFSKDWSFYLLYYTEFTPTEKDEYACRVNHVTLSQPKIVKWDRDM

| Sequence | MSE (MHC stabilization efficiency) (HLA B27) | MSE (MHC stabilization efficiency) (HLA B8) | ELISPOT Responses (SFC/10^6 PBMC) ([2]; donor eleven) | ELISPOT Responses (SFC/10^6 PBMC) ([2]; donor sixteen) | further results |
| --- | --- | --- | --- | --- | --- |
| ARVYEIKCR (human cytomegalovirus pp28 CTL epitope peptide) | − (− = 0-50%) | – | – | – | CTL response [1]: Y; ELISPOT Responses (SFC/10^6 PBMC) ([2]; donor fourteen): RK(148) SFC/10^6 PBMC |
| CRYKYLRKK (human cytomegalovirus pp28 CTL epitope peptide) | − (− = 0-50%) | – | – | – | – |
| ELKRKMMYM (human cytomegalovirus IE1 CTL epitope peptide) | – | − (− = 0-50%) | 300 SFC/10^6 PBMC | 4999 SFC/10^6 PBMC | CTL response [1]: Y; ELISPOT Responses (SFC/10^6 PBMC) ([2]; donor epsilon): SC(1000), SFC/10^6 PBMC; ELISPOT Responses (SFC/10^6 PBMC) ([2]; donor gamma): 100 SFC/10^6 PBMC; ELISPOT Responses (SFC/10^6 PBMC) ([2]; donor three): 1992 SFC/10^6 PBMC |
| ELRRKMMYM (human cytomegalovirus IE1 CTL epitope peptide) | – | ++ (++ = 100-199%) | 430 SFC/10^6 PBMC | 4999 SFC/10^6 PBMC | CTL response [1]: Y; ELISPOT Responses (SFC/10^6 PBMC) ([2]; donor epsilon): 1243 SFC/10^6 PBMC; ELISPOT Responses (SFC/10^6 PBMC) ([2]; donor one): 145 SFC/10^6 PBMC |
| GRCQMLDRR (human cytomegalovirus gH CTL epitope peptide) | − (− = 0-50%) | – | – | – | – |
| KARAKKDEL (human cytomegalovirus IE1 CTL epitope peptide) | – | −/− (− = 0-50%) | 235 SFC/10^6 PBMC | – | MSE (MHC stabilization efficiency) (HLA B7): −/− (− = 0-50%); ELISPOT Responses (SFC/10^6 PBMC) ([2]; donor four): 231 SFC/10^6 PBMC |
| QIKVRVDMV (human cytomegalovirus IE1 CTL epitope peptide) | – | + (+ = 51-99%) | 2425 SFC/10^6 PBMC | 2251 SFC/10^6 PBMC | CTL response [1]: Y; ELISPOT Responses (SFC/10^6 PBMC) ([2]; donor epsilon): 2848 SFC/10^6 PBMC; ELISPOT Responses (SFC/10^6 PBMC) ([2]; donor one): 475 SFC/10^6 PBMC |
| RRDHSLERL (human cytomegalovirus gH CTL epitope peptide) | − (− = 0-50%) | – | – | – | – |
| RRIEEICMK (human cytomegalovirus IE1 CTL epitope peptide) [reference compound] | − (− = 0-50%) | – | – | – | – |
| RRKMMYMCY (human cytomegalovirus IE1 CTL epitope peptide) | + (+ = 51-99%) | – | – | – | – |
| RRRHRQDAL | ++ (++ = 100-199%) | + (+ = 51-99%) | 215 SFC/10^6 PBMC | 71 SFC/10^6 PBMC | – |
| TRVKRNVKK (human cytomegalovirus pp50 CTL epitope peptide) | − (− = 0-50%) | – | – | – | – |
| WPRERAWAL (human cytomegalovirus pp150 CTL epitope peptide) | – | ++ (++ = 100-199%) | – | TC(67) SFC/10^6 PBMC | MSE (MHC stabilization efficiency) (HLA B7): +++ (+++ = 200-300%) |
| YRIQGKLEY | − (− = 0-50%) | – | – | TC(307) SFC/10^6 PBMC | – |
